# What was measured:
# [1] = tested on: breast tumor xenograft; test: Breast tumor xenograft model in rats, MPG disulfide with or without cisplatin; type: in vivo
# Experimental: (§1) The efficacy of MPG disulfide in improving the response to cisplatin in the breast tumor xenograft model in rats was tested. MPG disulfide was tested against two different tumor sizes. These different tumor sizes were achieved by growing the tumor in rats for up to 6 days (small tumor, FIG. 13) or 12 days (large tumor, FIGS. 14 and 15). MPG disulfide was determined to be non-toxic to the animals.
# (§2) The response of tumors to MPG disulfide was determined in rats with either small tumors (approximately 139 mm^3) or large tumors (approximately 2837 mm^3). MPG disulfide in physiological saline was administered at 40 mg/Kg/day via IP injections. The control animals were treated with saline. This treatment was continued for three consecutive days. […] Each group (control or MPG disulfide) consists of at least three animals. Each data point is mean of at least three animals with standard error as shown unless smaller than points plotted.
# (§3) The improved response of large tumors to cisplatin by MPG disulfide was determined in rats with tumors of approximately 2837 mm^3 in tumor volume. MPG disulfide in physiological saline was administered at 40 mg/kg/day via IP injections. At one hour after MPG disulfide administration, cisplatin (2 mg/kg) was administered to these rats by IP. MPG treatment alone without cisplatin was continued for two more days in these animals. […] Each group (cisplatin or MPG disulfide with cisplatin) consists of at least three animals. Each data point is mean of at least three animals with standard error as shown unless smaller than points plotted.
# [2] = tested on: human colon cancer cells HT29; test: Depletion of intracellular thiols (Ellman's reagent); type: cell-based; settings: HEDS 3 hours
# Experimental: […] After three hours of HEDS treatment, the attached cells were washed with cell rinse and lysed with 1 ml of sulphosalicyclic acid (SSA) lysis buffer. The samples were then centrifuged at high speed in a Fisher 59A microfuge and the supernatant was used for quantification of intracellular thiols using Ellman's reagent. Each experiment was repeated at least three times with errors as shown unless smaller than points plotted.
# [3] = tested on: breast cancer cell line (MCF7); test: Radiation response (survival after 4Gy γ irradiation) with HEDS; type: cell-based, human; settings: MCF7, absence of glucose
# Excerpt: (§4) FIGS. 17 and 18 show the impact of HEDS on the radiation response of a breast cancer cell line (MCF7) and a prostate cancer cell line (DU145) in the presence and absence of glucose.
# [4] = tested on: prostate cancer cell line (DU145); test: as above; type: cell-based, human; settings: DU145, absence of glucose
# Excerpt: as §4
# [5] = tested on: radiation sensitive human colon cancer cells HCT116; test: Clonogenic (colony) assay, HEDS alone; type: cell-based
# Experimental: In FIG. […] The cells were washed and replenished with fresh growth medium. Colony assays were carried out by plating cells at concentration that gives no more than 200 colonies. Each experiment was repeated at least three times with errors as shown unless smaller than points plotted.
# [6] = tested on: human colon cancer cells HCT116; test: Depletion of intracellular thiols (Ellman's reagent); type: cell-based; settings: HEDS 3 hours
# Experimental: The depletion of intracellular thiols by HEDS in human colon cancer cells HCT116 and HT29 was determined by first depriving the cells of glucose for 4 hours. After three hours of HEDS treatment, the attached cells were washed with cell rinse and lysed with 1 ml of sulphosalicyclic acid (SSA) lysis buffer. The samples were then centrifuged at high speed in a Fisher 59A microfuge and the supernatant was used for quantification of intracellular thiols using Ellman's reagent. Each experiment was repeated at least three times with errors as shown unless smaller than points plotted.
# For the estimation of intracellular thiols in HCT116 cells, the cells were incubated with different concentrations of glucose for 4 hours. For FIG. 12, the cells were then treated with HEDS for 3 hours. After treatment, the attached cells were washed with cell rinse and lysed with 1 ml of sulphosalicyclic acid (SSA) lysis buffer. The samples were centrifuged at high speed in a Fisher 59A microfuge and the supernatant was used for quantification of intracellular thiols using Ellman's reagent. Each experiment was repeated at least three times with errors as shown unless smaller than points plotted.
# [7] = tested on: HT29 cells; test: Colony assay, HEDS plus 4 Gy irradiation; type: cell-based, human; settings: HT29, absence of glucose, HEDS 1 hour before 4 Gy irradiation
# Experimental: (§5) For FIG. 3, radiation resistant human colon cancer cells HT29 were deprived of glucose for 4 hours and then treated with various concentrations of HEDS for 3 hours. The cells were washed and replenished with fresh growth medium. For FIG. 4, HT29 cells were deprived of glucose for 4 hours, treated with various concentrations of HEDS, and then treated for 1 hour before 4 Gy irradiation. Two hours after irradiation, the cells were washed and replenished with fresh growth medium. Colony assays were carried out by plating cells at concentration that gives no more than 200 colonies. Each experiment was repeated at least three times with errors as shown unless smaller than points plotted. […]
# [8] = tested on: breast tumor xenografts; test: Response of tumor xenografts in rats to etoposide with HEDS; type: in vivo; settings: HEDS 10 mg/kg/day IP one hour before etoposide 12 mg/Kg/day IP, three consecutive days, tumor about 8×8 mm
# Experimental: The use of HEDS, an oxidant/disulfide, to increase the response of tumor xenografts to topoisomerase II inhibitor, etoposide, was also investigated. […] The effect of HEDS (0 and 10 mg/kg/day) on the response of tumor to etoposide (12 mg/Kg/day) was determined in rats with tumor of approximately 8×8 mm in size. HEDS in physiological saline was administered at 0 and 10 mg/kg via IP injections. At one hour after HEDS administration, etoposide was administered to these rats by IP. This treatment was continued for three consecutive days. Tumor growth was measured twice a week for up to two weeks.
# [9] = tested on: HCT116 cells; test: Colony assay, HEDS plus 4 Gy irradiation; type: cell-based, human; settings: HCT116, absence of glucose, HEDS 1 hour before 4 Gy irradiation
# Experimental: For FIG. 2, HCT116 cells were deprived of glucose for 4 hours, treated with various concentrations of HEDS for 1 hour, and then exposed to 4 Gy irradiation. Two hours after irradiation, the cells were washed and replenished with fresh growth medium. The colony assay was then performed as described above for FIG. 1.
# [10] = tested on: radiation resistant human colon cancer cells HT29; test: Clonogenic (colony) assay, HEDS alone; type: cell-based
# Experimental: as §5
# [11] = Tolerability in tumor-bearing rats; type: in vivo
# Experimental: as §1, §2, §3
structure (smiles),measurement,setting,value
"N.N.[Cl][Pt][Cl] [Cisplatin, cis-diamine-dichloroplatinum (II), reference compound]",tumor volume on day 13 after the treatment,"[1]; large tumors, cisplatin alone 2 mg/kg IP",4355±577 mm^3
same,tumor volume at start of treatment,"[1]; large tumors, cisplatin alone group, baseline",2948±180 mm^3
"OCCSSCCO [HEDS, hydroxyethyldisulfide]",intracellular thiols,"[2]; HT29, glucose deprived 4 hours",≥ 40 % of the control
same,intracellular thiols,"[2]; HT29, with glucose",maintaining the intracellular thiols
same,radiation response,[3],significantly increased
same,radiation response,[4],significantly increased
same,cytotoxic effect (clonogenic survival),"[5]; HCT116, HEDS alone 3 hours, presence of glucose",little/no cytotoxic effects
same,decrease in survival,"[5]; HCT116, absence of glucose (deprived 4 hours), higher concentration of HEDS alone, 3 hours",75%
same,intracellular thiols,"[6]; HCT116, glucose deprived 4 hours",≥ 40 % of the control
same,intracellular thiols,"[6]; HCT116, low concentrations (1-3 mM) of glucose",intracellular thiol depletion
same,intracellular thiols,"[6]; HCT116, with glucose",maintaining the intracellular thiols
same,sensitization to radiation,[7],sensitization
same,better tumor response with HEDS and etoposide compared to etoposide alone,[8],at least 50%
same,sensitization to radiation,[9],sensitization
same,cytotoxic effect (clonogenic survival),"[10]; HT29, HEDS alone 3 hours, presence of glucose",little/no cytotoxic effects
same,effect on survival,"[10]; HT29, absence of glucose (deprived 4 hours), higher concentration of HEDS alone",no significant effect
"CC(SSC(C)C(=O)NCC(=O)O)C(=O)NCC(=O)O (stereo not drawn) [MPG disulfide, disulfide of mercaptopropionylglycine (MPG) (glycinepropionyldisulfide)]",observable side effects,"[11]; MPG disulfide 40 mg/Kg/day IP, three consecutive days",did not cause any observable side effects
same,observable side effects,"[11]; MPG disulfide 40 mg/kg/day IP with cisplatin 2 mg/kg IP, MPG continued two more days",did not cause any observable side effects
same,toxicity to the animals,[11]; rats with breast tumor xenograft,non-toxic
same,effect on tumors,"[1]; MPG disulfide in combination with cisplatin, even large tumors",completely eliminated tumors
same,tumor volume on day 13 after the start of the treatment,"[1]; large tumors, MPG disulfide 40 mg/kg/day IP (3 days) in combination with cisplatin 2 mg/kg IP",112±47 mm^3
same,increase in tumor size,"[1]; large tumors, MPG disulfide alone 40 mg/Kg/day IP, day 5 after the treatment",3 fold
same,tumor volume at start of treatment,"[1]; large tumors, MPG disulfide alone group, baseline",2848±538 mm^3
same,tumor smaller than the untreated animals,"[1]; large tumors, MPG disulfide alone, day 5 after the treatment",2.5 fold
same,maximum tumor size,"[1]; large tumors, MPG disulfide alone, day 8","18,038±1289 mm^3"
same,tumor smaller compared to cisplatin group,"[1]; large tumors, MPG disulfide in combination with cisplatin, day 13",38 fold
same,tumor volume at start of treatment,"[1]; large tumors, cisplatin and MPG disulfide combination group, baseline",2402±218 mm^3
same,tumor volume on day 13,"[1]; small tumors, MPG disulfide alone 40 mg/Kg/day IP, three consecutive days",126±119 mm^3
same,growth of small size tumors,"[1]; small tumors, MPG disulfide alone 40 mg/Kg/day IP, to day 13",completely inhibited the growth
same,tumor volume on the day of treatment,"[1]; small tumors, MPG disulfide alone group, baseline",139±4.29 mm^3
